Tested on: hypoxia-inducible endogenous VEGF expression in HeLa cells
Experiment: Hypoxia-inducible endogenous VEGF expression, VEGF ELISA of conditioned media (dose-response EC50)
Assay type: cell-based
Details: HeLa cells under hypoxic conditions
Procedure, shortened: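 HeLa cells were cultured 24-48 h under hypoxia (1% O2, 5% CO2, balance N2) with or without compound. Conditioned-media VEGF protein was measured by ELISA against a standard curve. EC50 and CC50 come from percentage-inhibition curves over, e.g., seven concentrations, with maximal inhibition set at 100%.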

Row | Structure (SMILES) | EC50 (Homo sapiens) [nM] | EC50 [nM]
1 | Fc1cccc(C2NCCc3c2[nH]c2ccc(Cl)cc32)c1 (centres unmarked) [Compound 203] | 200 to 1000 | –
2 | COCC(=O)N1CCc2c([nH]c3ccc(Br)cc23)C1c1ccc(OC)cc1 (centres unmarked) [Compound 204] | 200 to 1000 | –
3 | Fc1ccccc1C1NCCc2c1[nH]c1ccc(Cl)cc21 (centres unmarked) [Compound 205] | 200 to 1000 | –
4 | CCNC(=S)N1CCc2c([nH]c3ccc(Cl)cc23)C1c1ccc(OCc2ccccc2)cc1 (centres unmarked) [Compound 206] | 200 to 1000 | –
5 | FC(F)(F)c1cccc(C2NCCc3c2[nH]c2ccc(Br)cc32)c1 (centres unmarked) [Compound 207] | 200 to 1000 | –
6 | CCCCCC1c2[nH]c3ccc(Cl)cc3c2CCN1Cc1ccccc1 (centres unmarked) [Compound 208] | 200 to 1000 | –
7 | CCOC(=O)N1CCc2c([nH]c3ccc(F)cc23)C1c1ccc(C)cc1 (centres unmarked) [Compound 209] | 200 to 1000 | –
8 | COc1cccc(C2NCCc3c2[nH]c2ccc(Cl)cc32)c1 (centres unmarked) [Compound 210] | 200 to 1000 | –
9 | CCOC(=O)N1CCc2c([nH]c3ccc(Br)cc23)C1Cc1ccccc1 (centres unmarked) [Compound 211] | 200 to 1000 | –
10 | Clc1ccc2[nH]c3c(c2c1)CCNC3c1ccc(OCc2ccccc2)cc1 (centres unmarked) [Compound 212] | 200 to 1000 | –
11 | Brc1cccc(C2NCCc3c2[nH]c2ccc(Br)cc32)c1 (centres unmarked) [Compound 213] | 200 to 1000 | –
12 | COc1ccc(C2NCCc3c2[nH]c2ccc(Br)cc32)cc1 (centres unmarked) [Compound 214] | 200 to 1000 | –
13 | Fc1ccc(C2NCCc3c2[nH]c2ccc(Cl)cc32)cc1F (centres unmarked) [Compound 215] | 200 to 1000 | –
14 | Clc1ccc2[nH]c3c(c2c1)CCNC3c1ccccc1 (centres unmarked) [Compound 216] | 200 to 1000 | –
15 | COc1ccc(C2c3[nH]c4ccc(Cl)cc4c3CCN2C(=O)NCCCl)cc1 (centres unmarked) [Compound 217] | 200 to 1000 | –
16 | COCC(=O)N1CCc2c([nH]c3ccc(Br)cc23)C1c1cccc(Cl)c1 (centres unmarked) [Compound 218] | 200 to 1000 | –
17 | N#Cc1ccc(C2NCCc3c2[nH]c2ccc(Cl)cc32)cc1 (centres unmarked) [Compound 220] | 200 to 1000 | –
18 | CCNC(=O)N1CCc2c([nH]c3ccc(Cl)cc23)C1c1ccc(OCc2ccccc2)cc1 (centres unmarked) [Compound 221] | 200 to 1000 | –
19 | Clc1ccc(CC2NCCc3c2[nH]c2ccc(Cl)cc32)c(Cl)c1 (centres unmarked) [Compound 222] | 200 to 1000 | –
20 | Clc1ccc2[nH]c3c(c2c1)CCNC3c1cc(Br)cc(Br)c1 (centres unmarked) [Compound 223] | 200 to 1000 | –
21 | CC(C)Oc1ccc(C2NCCc3c2[nH]c2ccc(Cl)cc32)cc1 (centres unmarked) [Compound 224] | 200 to 1000 | –
22 | CS(=O)(=O)N1CCc2c([nH]c3ccc(Cl)cc23)C1c1ccc(OCc2ccccc2)cc1 (centres unmarked) [Compound 225] | 200 to 1000 | –
23 | CCOC(=O)N1CCc2c([nH]c3ccc(Cl)cc23)C1Cc1ccccc1 (centres unmarked) [Compound 226] | 200 to 1000 | –
24 | Clc1ccc2[nH]c3c(c2c1)CCNC3c1ccc2c(c1)OCO2 (centres unmarked) [Compound 227] | 200 to 1000 | –
25 | Clc1ccc2[nH]c3c(c2c1)CCN(Cc1ccco1)C3C1CCCCC1 (centres unmarked) [Compound 228] | 200 to 1000 | –
26 | CCOC(=O)N1CCc2c([nH]c3ccc(F)cc23)C1c1ccc(Cl)cc1 (centres unmarked) [Compound 229] | > 1000 | –

Row | Structure (SMILES) | EC50 (Homo sapiens) [nM] | EC50 [nM]
27 | COCC(=O)N1CCc2c([nH]c3ccc(Br)cc23)C1c1ccccc1 (centres unmarked) [Compound 230] | > 1000 | –
28 | COc1ccc(C2NCCc3c2[nH]c2ccc(Cl)cc32)cc1 (centres unmarked) [Compound 231] | > 1000 | –
29 | Brc1ccc2[nH]c3c(c2c1)CCNC3c1ccc(OCc2ccccc2)cc1 (centres unmarked) [Compound 232] | > 1000 | –
30 | CC(C)(C)OC(=O)N[C@@H](Cc1ccccc1)C(=O)N1CCc2c([nH]c3ccc(Cl)cc23)C1c1ccccc1 (some centres unmarked) [Compound 233] | > 1000 | –
31 | O=c1c(C2NCCc3c2[nH]c2ccc(Cl)cc32)coc2ccccc12 (centres unmarked) [Compound 234] | > 1000 | –
32 | CCOC(=O)N1CCc2c([nH]c3ccccc23)C1c1ccc(OC)cc1 (centres unmarked) [Compound 235] | > 1000 | –
33 | COCCOCC(=O)N1CCc2c([nH]c3ccc(Br)cc23)C1c1ccc(Cl)cc1 (centres unmarked) [Compound 238] | > 1000 | –
34 | O=[N+]([O-])c1cccc(C2NCCc3c2[nH]c2ccc(Cl)cc32)c1 (centres unmarked) [Compound 239] | > 1000 | –
35 | CCOC(=O)N1CCc2c([nH]c3ccc(Cl)cc23)C1CC (centres unmarked) [Compound 240] | > 1000 | –
36 | COCCOCC(=O)N1CCc2c([nH]c3ccc(Br)cc23)C1c1ccc(Br)cc1 (centres unmarked) [Compound 241] | > 1000 | –
37 | COc1ccc(C2c3[nH]c4ccc(F)cc4c3CCN2C(=S)NC2CCCCC2)cc1 (centres unmarked) [Compound 242] | > 1000 | –
38 | CCOC(=O)N1CCc2[nH]c3ccc(Br)cc3c2C1 [Compound 243] | > 1000 | –
39 | COc1ccc(C2NC(C(=O)N3CCN(C(C)=O)CC3)Cc3c2[nH]c2ccc(Br)cc32)cc1 (centres unmarked) [Compound 244] | > 1000 | –
40 | COc1ccc(C2NC(C(=O)NC3CCCCC3)Cc3c2[nH]c2ccc(Br)cc32)cc1 (centres unmarked) [Compound 245] | > 1000 | –
41 | COc1ccc(C2NC(C(=O)Nc3ncc(C)s3)Cc3c2[nH]c2ccc(Br)cc32)cc1 (centres unmarked) [Compound 246] | > 1000 | –
42 | COc1ccc(C2NC(C(=O)N3CCOCC3)Cc3c2[nH]c2ccc(Br)cc32)cc1 (centres unmarked) [Compound 247] | > 1000 | –
43 | Clc1ccc2[nH]c3c(c2c1)CNCC3c1ccccc1 (centres unmarked) [Compound 248] | > 1000 | –
44 | CCOC(=O)N1Cc2c([nH]c3ccc(Br)cc23)C(O)C1 (centres unmarked) [Compound 249] | > 1000 | –
45 | CCOC(=O)N1Cc2c([nH]c3ccc(Cl)cc23)C(c2ccccc2)C1 (centres unmarked) [Compound 250] | > 1000 | –
46 | Clc1ccc2[nH]c3c(c2c1)CCNC3Cc1ccccc1 (centres unmarked) [Compound 251] | > 1000 | –
47 | Brc1ccc2[nH]c3c(c2c1)CCNC3Cc1ccccc1 (centres unmarked) [Compound 252] | > 1000 | –
48 | Fc1ccc2[nH]c3c(c2c1)CCNC3c1cccc(Cl)c1 (centres unmarked) [Compound 253] | > 1000 | –
49 | Fc1ccc2[nH]c3c(c2c1)CCNC3c1ccc(Cl)cc1 (centres unmarked) [Compound 254] | > 1000 | –
50 | Cc1ccc(C2NCCc3c2[nH]c2ccc(F)cc32)cc1 (centres unmarked) [Compound 255] | > 1000 | –
51 | Fc1ccc2[nH]c3c(c2c1)CCNC3c1ccc(Br)cc1 (centres unmarked) [Compound 256] | > 1000 | –
52 | Fc1ccc2[nH]c3c(c2c1)CCNC3c1ccc(Cl)cc1Cl (centres unmarked) [Compound 257] | > 1000 | –

Row | Structure (SMILES) | EC50 (Homo sapiens) [nM] | EC50 [nM]
53 | COCCOCC(=O)N1CCc2c([nH]c3ccc(Br)cc23)C1c1ccc(C)cc1 (centres unmarked) [Compound 258] | > 1000 | –
54 | COCCOCC(=O)N1CCc2c([nH]c3ccc(Br)cc23)C1c1cccc(Cl)c1 (centres unmarked) [Compound 259] | > 1000 | –
55 | Clc1ccc2[nH]c3c(c2c1)CCN(Cc1ccccc1)C3c1nccs1 (centres unmarked) [Compound 262] | > 1000 | –
56 | CC(C)(C)c1cc(C2c3[nH]c4ccc(Cl)cc4c3CCN2Cc2ccccc2)cc(C(C)(C)C)c1O (centres unmarked) [Compound 263] | > 1000 | –
57 | Clc1ccc2[nH]c3c(c2c1)CCN(Cc1ccccc1)C3C1CCOC1 (centres unmarked) [Compound 264] | – | > 1000
58 | Clc1ccc2[nH]c3c(c2c1)CCN(Cc1ccco1)C3c1ccco1 (centres unmarked) [Compound 265] | – | > 1000
59 | Clc1ccc2[nH]c3c(c2c1)CCN(Cc1ccco1)C3c1nccs1 (centres unmarked) [Compound 267] | > 1000 | –
60 | Clc1ccc2[nH]c3c(c2c1)CCN(Cc1ccoc1)C3c1ccco1 (centres unmarked) [Compound 268] | > 1000 | –
61 | Clc1ccc2[nH]c3c(c2c1)CCN(Cc1ccoc1)C3c1nccs1 (centres unmarked) [Compound 270] | > 1000 | –
62 | Clc1ccc2[nH]c3c(c2c1)CCN(Cc1ccoc1)C3C1CCCCC1 (centres unmarked) [Compound 271] | > 1000 | –
63 | Clc1ccc2[nH]c3c(c2c1)CCN(Cc1ccccc1)C3c1ccncc1 (centres unmarked) [Compound 272] | > 1000 | –
64 | Clc1ccc2[nH]c3c(c2c1)CCN(Cc1ccccc1)C3c1c[nH]c2ccc(Br)cc12 (centres unmarked) [Compound 273] | > 1000 | –
65 | Clc1ccc2[nH]c3c(c2c1)CCN(Cc1ccccc1)C3c1cc2c(cc1Cl)OCO2 (centres unmarked) [Compound 274] | > 1000 | –
66 | Clc1ccc2[nH]c3c(c2c1)CCN(Cc1ccccc1)C3c1ccccn1 (centres unmarked) [Compound 275] | > 1000 | –
67 | Clc1ccc2[nH]c3c(c2c1)CCN(Cc1ccccc1)C3c1cccnc1 (centres unmarked) [Compound 276] | > 1000 | –
68 | Clc1ccc2[nH]c3c(c2c1)CCNC3c1ccc(-n2ccnc2)cc1 (centres unmarked) [Compound 277] | > 1000 | –
69 | CCOC(=O)N1CCc2c([nH]c3ccc(OCc4ccccc4)cc23)C1c1ccc(OC)cc1 (centres unmarked) [Compound 278] | > 1000 | –
70 | CCOC(=O)N1CCc2c([nH]c3ccc(Cl)cc23)C1c1ccc(OCCN2CCOCC2)cc1 (centres unmarked) [Compound 279, 6-Chloro-1-[4-(2-morpholin-4-yl-ethoxy)-phenyl]-1,3,4,9-tetrahydro-b-carboline-2-carboxylic acid ethyl ester] | < 8 | –
71 | COc1ccc(C2c3[nH]c4ccc(F)cc4c3CCN2C(=O)NC2CCCCC2)cc1 (centres unmarked) [Compound 283] | > 1000 | –
72 | CCOC(=O)N1CCc2c([nH]c3ccc(F)cc23)C1c1cccc(Cl)c1 (centres unmarked) [Compound 284] | > 1000 | –
73 | COc1ccc2[nH]c3c(c2c1)CCNC3c1ccc(OCc2ccccc2)cc1 (centres unmarked) [Compound 285] | > 1000 | –
74 | Cc1cccc(C2NCCc3c2[nH]c2ccc(Cl)cc32)c1 (centres unmarked) [Compound 286] | > 1000 | –
75 | Clc1ccc2[nH]c3c(c2c1)CCNC3C1CCCCC1 (centres unmarked) [Compound 287] | > 1000 | –
76 | c1ccc(COc2ccc(C3NCCc4c3[nH]c3ccc(OCc5ccccc5)cc43)cc2)cc1 (centres unmarked) [Compound 288] | > 1000 | –
77 | COc1ccc(C2c3[nH]c4ccccc4c3CCN2C(=S)NC(C)C)cc1 (centres unmarked) [Compound 289] | > 1000 | –
